Test results taken from publication PMC8957602 (Cancer chemotherapy and pharmacology, 2022).
Values joined by “and” are separate entries in the source; they are usually repeats but may differ in a detail not shown here. Equal entries are not always repeated. Where two headings read alike, the source gives them in different places.

What was measured:
CYP3A4 = conditions: ref [31]; cited from earlier work
[1] = tested on: human cytochrome CYP3A enzyme family; conditions: in vitro; ref unpublished in vitro data; cited from earlier work
[2] = ref [18], cited from earlier work
[3] = described as weak acid drug; cited from earlier work
[4] = for AUC(0-t) / clearance: human, serum, oral; for AUC(0-t): 170 mg/m2, Steady state AUC0–24h, after 170 mg/m^2; for clearance: Mean clearance
[5] = adults with FLT3 mutant AML, ref [26], cited from earlier work
[6] = ref [11], cited from earlier work
[7] = format: in vivo, human; conditions: despite increased exposure with acid reducer co-treatment
[8] = before including any covariates
[9] = before inclusion of significant covariates
[10] = final model with covariates, Estimate (RSE%)
[11] = final model, standard deviation, Estimate (RSE%)
[12] = standard deviation, 500 bootstrap replicates

Structure (SMILES): CNC(=C[N+](=O)[O-])NCCSCc1ccc(CN(C)C)o1 [ranitidine]
- CYP3A4 inhibition (CYP3A4): weak CYP3A4 inhibitors

Structure (SMILES): CC1(COc2ccc3c(c2)ncn3-c2ccc3cccc(N4CCC(N)CC4)c3n2)COC1 [crenolanib]
- Metabolizing enzyme [1]: primarily metabolized by human cytochrome CYP3A enzyme family
- Maximum tolerated dosage ([2]; oral once daily): 170 mg/m^2/d
- Association of higher AUC with toxicities [2]: not associated with more frequent or severe toxicities
- pKa [3]: ~ 9.8
- AR coefficient on V1/F βAR-V, non-parametric bootstraps mean ([4]; 500 bootstrap replicates): −0.477
- Absorption lag time Tlag, non-parametric bootstraps mean ([4]; 500 bootstrap replicates): 0.547 h
- Absorption rate constant ka, non-parametric bootstraps mean ([4]; 500 bootstrap replicates): 0.192 h⁻¹
- Age coefficient on ka βAge, non-parametric bootstraps mean ([4]; 500 bootstrap replicates): −0.0403
- Central clearance CL/F, non-parametric bootstraps mean ([4]; 500 bootstrap replicates): 42.0 L/h
- Central volume V1/F, non-parametric bootstraps mean ([4]; 500 bootstrap replicates): 54.0 L
- Peripheral volume V2/F, non-parametric bootstraps mean ([4]; 500 bootstrap replicates): 194 L
- Residual proportional error, non-parametric bootstraps mean ([4]; 500 bootstrap replicates): 0.306
- CL/F population estimate [4, 8]: 20.4 L/h
- Q/F population estimate [4, 8]: 4.47 L/h
- Tlag population estimate [4, 8]: 0.59 h
- V1/F population estimate [4, 8]: 34.6 L
- V2/F population estimate [4, 8]: 316 L
- ka population estimate [4, 8]: 0.13 h⁻¹
- Inter-occasion variability of CL/F [4, 9]: 0.568
- Inter-occasion variability of V1/F [4, 9]: 0.956
- Absorption lag time Tlag, population estimate [4, 10]: 0.525 (14.4) h
- Absorption rate constant ka, population estimate [4, 10]: 0.191 (10.4) /h
- Peripheral volume V2/F, population estimate ([4]; final model, Estimate (RSE%)): 412 (86.7) L
- Residual proportional error ([4]; final model, Estimate (RSE%)): 0.304 (4.44)
- AR coefficient on V1/F βAR-V ([4]; final model, acid reducer concomitant treatment, Estimate (RSE%)): −0.516 (42.3)
- Age coefficient on ka βAge ([4]; final model, exponential model, Estimate (RSE%)): −0.0404 (20.5)
- Inter-occasion variability (IOV) of absorption lag time Tlag [4, 11]: 0.645 (18.3)
- Inter-patient variability (IIV) of absorption lag time Tlag [4, 11]: 0.524 (27.7)
- Inter-patient variability (IIV) of peripheral clearance Q/F [4, 11]: 0.536 (20.2)
- Central volume V1/F, population estimate ([4]; final model, typical patient, no acid reducer, Estimate (RSE%)): 54.3 L and 54.3 (18.4) L
- Lower V1/F in patients receiving concomitant acid reducers ([4]; histamine H2 antagonists or proton pump inhibitors, p=0.018): ~1.7 fold
- AUC(0-t) ([4]; mean): 20.7 µM·h
- AUC(0-t) ([4]; range): 9.48 to 68.5 µM·h
- clearance ([4]; all patients): 642 mL/min
- clearance ([4]; with acid reducers): 435 mL/min
- clearance ([4]; without acid reducers): 980 mL/min
- Accumulation at steady state ([4]; in vivo): minimal accumulation
- IIV of absorption lag time Tlag, non-parametric bootstraps mean [4, 12]: 0.496
- IIV of absorption rate constant ka, non-parametric bootstraps mean [4, 12]: 0.091
- IIV of central volume V1/F, non-parametric bootstraps mean [4, 12]: 0.182
- IOV of absorption lag time Tlag, non-parametric bootstraps mean [4, 12]: 0.591
- IOV of central volume V1/F, non-parametric bootstraps mean [4, 12]: 0.860
- Mean clearance ([5]; similar between day 1 and day 15): ~ 60 L/h
- Drug accumulation after repeated doses [5]: minimal drug accumulation
- Terminal half-life [5]: 6.8 h
- Terminal half-life ([6]; adults with solid tumors, 100–340 mg once daily, similar across all dose levels, [15]): 14 ± 4.2 h
- Mean (CV%) steady state AUC0–72h ([6]; adults, 280 mg once daily (approx. 168 mg/m^2)): 25,928 (92%) h·nM
- Tolerability ([6]; adults, 100–340 mg once daily, [15]): well tolerated
- Tolerability of therapy [7]: well-tolerated

Structure (SMILES): COc1ccc2[nH]c([S+]([O-])Cc3ncc(C)c(OC)c3C)nc2c1 (stereo not shown) [omeprazole]
- CYP3A4 inhibition (CYP3A4): weak CYP3A4 inhibitors

Structure (SMILES): COc1ccnc(C[S+]([O-])c2nc3ccc(OC(F)F)cc3[nH]2)c1OC (stereo not shown) [pantoprazole]
- CYP3A4 inhibition (CYP3A4): weak CYP3A4 inhibitors
